According to patent publication US9222928B2, “Biphenol ether compounds as markers for liquid hydrocarbons and other fuels and oils” (Dow Global Technologies LLC, priority 2011, dated 2015):

CCCCCCCCCCCCOc1ccccc1-c1ccccc1OCCCCCCCCCCCC [BDD-BBPh, 2,2′-Bis(dodecyloxy)-1,1′-biphenyl]
melting point: 33 to 35 °C
